Measured values from patent US7541368B2, “Pyrazoles as inhibitors of tumor necrosis factor” (Aventis Pharmaceuticals Inc., priority 2003, dated 2009).

Tested on: TNF-alpha release in THP-1 cells
Test: LPS-induced TNF-alpha release in THP-1 cells
Type: cell-based
Conditions: Homo sapiens, THP-1, LPS-stimulated THP-1 cells; read-out: 50% inhibition in the LPS-induced TNF-alpha release in THP-1 cells assay at concentrations within the range
Description: The effects of compounds on TNF-alpha production by lipopolysaccharide (LPS)-stimulated […] monocytes were examined as follows.
Undifferentiated THP-1 cells were maintained in RPMI 1640 with Glutamax I containing β-mercaptoethananol (50 μM) and foetal calf serum (FCS-10%) at densities of about 1×10^6 cells per ml. For incubations without and with test reagents, cells were seeded at the indicated densities under serum-deprived (1% FCS) conditions. Compounds were dissolved in dimethylsulfoxide (DMSO-100%) and incubated with the cells to give a fmal DMSO concentration of 0.3%. Control and untreated cell samples were incubated with DMSO (0.3%).
THP-1 cells (1×10 ^6 cells/ml, total volume 150 μl) in culture medium were incubated for 1 hour (5% CO2, 37° C.) with fresh medium containing compounds or vehicle (0.1-0.3% dimethylsulfoxide). LPS (20 μg/ml) was then added to the cells and the incubation continued for a fuirther 18 hours. Cell supernatants were removed into 96 well plates for storage at −20° C.
TNF-alpha concentrations in cell supernatants were quantified by sandwich ELISA. Briefly, ELISA plates were coated overnight with 2 μg/ml of mouse anti-human TNF-alpha antibody in bicarbonate buffer (pH 9.9). After washing the wells with wash buffer (0.05% (v/v) Tween in PBS)and blocking unoccupied sites (1% BSA in wash buffer), monocyte supernatant samples or human recombinant TNF-alpha standards were added into the corresponding wells of the ELISA plate at 1:10 dilution. Biotinylated rabbit polyclonal anti-human TNF-alpha antibody (3 μg/ml) was used as the second antibody and streptavidin-horseradish peroxidase was used as the detection antibody. The peroxidase substrate is 3,3′,5,5′-tetramethylbenzidine (TMB) in the presence of hydrogen peroxide.
TNFα concentrations in supernatants from control and LPS-stimulated monocyte incubations were calculated by interpolation from a standard (log/log) curve (0.125-16 ng/ml) fitted by Excel Fit using the Activity Base software. Compounds were tested within the concentration range of 1×10^−9M to 1×10^−6M.

CO[C@H](C(=O)N1CCC(Cc2cccc(NC(=O)Nc3cc(C(C)(C)C)nn3-c3ccc(C)cc3)c2)CC1)c1ccccc1 [Compound A4, 1-(5-tert-Butyl-2-p-tolyl-2H-pyrazol-3-yl)-3-{3-[1-((S)-2-methoxy-2-phenyl-acetyl)-piperidin-4-ylmethyl]-phenyl}-urea]
IC50: 10 to 500 nM

Cc1ccc(-n2nc(C(C)(C)C)cc2NC(=O)Nc2cccc(CC3CCN(C(=O)c4csnn4)CC3)c2)cc1 [Compound A6, 1-(5-tert-Butyl-2-p-tolyl-2H-pyrazol-3-yl)-3-{3-[1-([1,2,3]thiadiazole-4-carbonyl)-piperidin-4-ylmethyl]-phenyl}-urea]
IC50: 10 to 500 nM

Cc1ccc(-n2nc(C(C)(C)C)cc2NC(=O)Nc2cccc(CC3CCN(C(=O)c4ccc5cnccc5n4)CC3)c2)cc1 [Compound A7, 1-(5-tert-Butyl-2-p-tolyl-2H-pyrazol-3-yl)-3-{3-[1-([1,6]naphthyridine-2-carbonyl)-piperidin-4-ylmethyl]-phenyl}-urea]
IC50: 10 to 500 nM

Cc1ccc(-n2nc(C(C)(C)C)cc2NC(=O)Nc2cccc(CC3CCN(C(=O)c4ccc5cccnc5n4)CC3)c2)cc1 [Compound A8, 1-(5-tert-Butyl-2-p-tolyl-2H-pyrazol-3-yl)-3-{3-[1-([1,8]naphthyridine-2-carbonyl)-piperidin-4-ylmethyl]-phenyl}-urea]
IC50: 10 to 500 nM

Cc1ccc(-n2nc(C(C)(C)C)cc2NC(=O)Nc2cccc(CC3CCN(C(=O)c4nccc5ccccc45)CC3)c2)cc1 [Compound A13, 1-(5-tert-Butyl-2-p-tolyl-2H-pyrazol-3-yl)-3-{3-[1-(isoquinoline-1-carbonyl)-piperidin-4-ylmethyl]-phenyl}-urea]
IC50: 10 to 500 nM

COc1cccc(C(=O)N2CCC(Cc3cccc(NC(=O)Nc4cc(C(C)(C)C)nn4-c4ccc(C)cc4)c3)CC2)c1OC [Compound A21, 1-(5-tert-Butyl-2-p-tolyl-2H-pyrazol-3-yl)-3-{3-[1-(2,3-dimethoxy-benzoyl)-piperidin-4-ylmethyl]-phenyl}-urea]
IC50: 10 to 500 nM

COc1cccc(CC(=O)N2CCC(Cc3cccc(NC(=O)Nc4cc(C(C)(C)C)nn4-c4ccc(C)cc4)c3)CC2)c1OC [Compound A22, 1-(5-tert-Butyl-2-p-tolyl-2H-pyrazol-3-yl)-3-(3-{1-[2-(2,3-dimethoxy-phenyl)-acetyl]-piperidin-4-ylmethyl}-phenyl)-urea]
IC50: 10 to 500 nM

COc1cc(OC)c(C(=O)N2CCC(Cc3cccc(NC(=O)Nc4cc(C(C)(C)C)nn4-c4ccc(C)cc4)c3)CC2)c(OC)c1 [Compound A24, 1-(5-tert-Butyl-2-p-tolyl-2H-pyrazol-3-yl)-3-{3-[1-(2,4,6-trimethoxy-benzoyl)-piperidin-4-ylmethyl]-phenyl}-urea]
IC50: 10 to 500 nM

Cc1ccc(-n2nc(C(C)(C)C)cc2NC(=O)Nc2cccc(CC3CCN(C(=O)Cc4ccc(F)cc4F)CC3)c2)cc1 [Compound A26, 1-(5-tert-Butyl-2-p-tolyl-2H-pyrazol-3-yl)-3-(3-{1-[2-(2,4-difluoro-phenyl)-acetyl]-piperidin-4-ylmethyl}-phenyl)-urea]
IC50: 10 to 500 nM

Cc1ccc(-n2nc(C(C)(C)C)cc2NC(=O)Nc2cccc(CC3CCN(C(=O)c4cc(C)oc4C)CC3)c2)cc1 [Compound A29, 1-(5-tert-Butyl-2-p-tolyl-2H-pyrazol-3-yl)-3-{3-[1-(2,5-dimethyl-furan-3-carbonyl)-piperidin-4-ylmethyl]-phenyl}-urea]
IC50: 10 to 500 nM

Cc1ccc(-n2nc(C(C)(C)C)cc2NC(=O)Nc2cccc(CC3CCN(C(=O)c4cccnc4N)CC3)c2)cc1 [Compound A39, 1-{3-[1-(2-Amino-pyridine-3-carbonyl)-piperidin-4-ylmethyl]-phenyl}-3-(5-tert-butyl-2-p-tolyl-2H-pyrazol-3-yl)-urea]
IC50: 10 to 500 nM

Cc1ccc(-n2nc(C(C)(C)C)cc2NC(=O)Nc2cccc(CC3CCN(C(=O)c4ccc(S(C)(=O)=O)cc4Cl)CC3)c2)cc1 [Compound A40, 1-(5-tert-Butyl-2-p-tolyl-2H-pyrazol-3-yl)-3-{3-[1-(2-chloro-4-methanesulfonyl-benzoyl)-piperidin-4-ylmethyl]-phenyl}-urea]
IC50: 10 to 500 nM

Cc1ccc(-n2nc(C(C)(C)C)cc2NC(=O)Nc2cccc(CC3CCN(C(=O)c4ccco4)CC3)c2)cc1 [Compound A45, 1-(5-tert-Butyl-2-p-tolyl-2H-pyrazol-3-yl)-3-{3-[1-(furan-2-carbonyl)-piperidin-4-ylmethyl]-phenyl}-urea]
IC50: 10 to 500 nM

COc1ccccc1CC(=O)N1CCC(Cc2cccc(NC(=O)Nc3cc(C(C)(C)C)nn3-c3ccc(C)cc3)c2)CC1 [Compound A50, 1-(5-tert-Butyl-2-p-tolyl-2H-pyrazol-3-yl)-3-(3-{1-[2-(2-methoxy-phenyl)-acetyl]-piperidin-4-ylmethyl}-phenyl)-urea]
IC50: 10 to 500 nM

Cc1ccc(-n2nc(C(C)(C)C)cc2NC(=O)Nc2cccc(CC3CCN(C(=O)c4ccoc4C)CC3)c2)cc1 [Compound A52, 1-(5-tert-Butyl-2-p-tolyl-2H-pyrazol-3-yl)-3-{3-[1-(2-methyl-furan-3-carbonyl)-piperidin-4-ylmethyl]-phenyl}-urea]
IC50: 10 to 500 nM

Cc1ccc(-n2nc(C(C)(C)C)cc2NC(=O)Nc2cccc(CC3CCN(C(=O)c4cnccn4)CC3)c2)cc1 [Compound A64, 1-(5-tert-Butyl-2-p-tolyl-2H-pyrazol-3-yl)-3-{3-[1-(pyrazine-2-carbonyl)-piperidin-4-ylmethyl]-phenyl}-urea]
IC50: 10 to 500 nM

Cc1ccc(-n2nc(C(C)(C)C)cc2NC(=O)Nc2cccc(CC3CCN(C(=O)C4CCCO4)CC3)c2)cc1 (centres unmarked) [Compound A66, 1-(5-tert-Butyl-2-p-tolyl-2H-pyrazol-3-yl)-3-{3-[1-(tetrahydro-furan-2-carbonyl)-piperidin-4ylmethyl]-phenyl}-urea]
IC50: 10 to 500 nM

COc1ccc(CC(=O)N2CCC(Cc3cccc(NC(=O)Nc4cc(C(C)(C)C)nn4-c4ccc(C)cc4)c3)CC2)cc1OC [Compound A69, 1-(5-tert-Butyl-2-p-tolyl-2H-pyrazol-3-yl)-3-(3-{1-[2-(3,4-dimethoxy-phenyl)-acetyl]-piperidin-4-ylmethyl}-phenyl)-urea]
IC50: 10 to 500 nM

Cc1ccc(-n2nc(C(C)(C)C)cc2NC(=O)Nc2cccc(CC3CCN(C(=O)Cc4ccc5c(c4)OCO5)CC3)c2)cc1 [Compound A70, 1-{3-[1-(2-Benzo[1,3]dioxol-5-yl-acetyl)-piperidin-4-ylmethyl]-phenyl}-3-(5-tert-butyl-2-p-tolyl-2H-pyrazol-3-yl)-urea]
IC50: 10 to 500 nM

COc1cc(OC)cc(C(=O)N2CCC(Cc3cccc(NC(=O)Nc4cc(C(C)(C)C)nn4-c4ccc(C)cc4)c3)CC2)c1 [Compound A73, 1-(5-tert-Butyl-2-p-tolyl-2H-pyrazol-3-yl)-3-{3-[1-(3,5-dimethoxy-benzoyl)-piperidin-4-ylmethyl]-phenyl}-urea]
IC50: 10 to 500 nM

Cc1ccc(-n2nc(C(C)(C)C)cc2NC(=O)Nc2cccc(CC3CCN(C(=O)c4cccc(C(C)C#N)c4)CC3)c2)cc1 (centres unmarked) [Compound A79, 1-(5-tert-Butyl-2-p-tolyl-2H-pyrazol-3-yl)-3-(3-{1-[3-(cyano-methyl-methyl)-benzoyl]-piperidin-4-ylmethyl}-phenyl)-urea]
IC50: 10 to 500 nM

Cc1ccc(-n2nc(C(C)(C)C)cc2NC(=O)Nc2cccc(CC3CCN(C(=O)CCc4ccco4)CC3)c2)cc1 [Compound A81, 1-(5-tert-Butyl-2-p-tolyl-2H-pyrazol-3-yl)-3-{3-[1-(3-furan-2-yl-propionyl)-piperidin-4-ylmethyl]-phenyl}-urea]
IC50: 10 to 500 nM

COc1ccccc1CCC(=O)N1CCC(Cc2cccc(NC(=O)Nc3cc(C(C)(C)C)nn3-c3ccc(C)cc3)c2)CC1 [Compound A82, 1-(5-tert-Butyl-2-p-tolyl-2H-pyrazol-3-yl)-3-(3-{1-[3-(2-methoxy-phenyl)-propionyl]-piperidin-4-ylmethyl}-phenyl)-urea]
IC50: 10 to 500 nM

Cc1ccc(-n2nc(C(C)(C)C)cc2NC(=O)Nc2cccc(CC3CCN(C(=O)CCc4cccs4)CC3)c2)cc1 [Compound A83, 1-(5-tert-Butyl-2-p-tolyl-2H-pyrazol-3-yl)-3-{3-[1-(3-thiophen-2-yl-propionyl)-piperidin-4-ylmethyl]-phenyl}-urea]
IC50: 10 to 500 nM

Cc1ccc(-n2nc(C(C)(C)C)cc2NC(=O)Nc2cccc(CC3CCN(C(=O)c4ccoc4)CC3)c2)cc1 [Compound A92, 1-(5-tert-Butyl-2-p-tolyl-2H-pyrazol-3-yl)-3-{3-[1-(furan-3-carbonyl)-piperidin-4-ylmethyl]-phenyl}-urea]
IC50: 10 to 500 nM

Cc1ccc(-n2nc(C(C)(C)C)cc2NC(=O)Nc2cccc(CC3CCN(C(=O)c4occc4C)CC3)c2)cc1 [Compound A95, 1-(5-tert-Butyl-2-p-tolyl-2H-pyrazol-3-yl)-3-{3-[1-(3-methyl-furan-2-carbonyl)-piperidin-4-ylmethyl]-phenyl}-urea]
IC50: 10 to 500 nM
